Results as given in patent US20250170154A1 (GreenStone Biosciences, Inc., priority 2023, published 2025).
Read-outs that look alike come from different tables or passages of the source.

Tests used:
[1] = system: 16 month-old mice; test: 16 month-old mice with 7-day osmotic pumps; assay type: in vivo, mouse
Procedure: Three groups of 16 month-old mice were implanted with 7-day osmotic pumps dispensing vehicle, 0.24 mg/Kg/day, and 2.4 mg/Kg/day of compound 2. All three groups of animals lost ˜1% of body weight over the 7 days.

[2] = Approximate solubility in selected solvents by visual observation; assay type: physicochemical; conditions: thermodynamic from solid
Procedure: Solubility testing of compound 2 was carried out by adding 20 μL aliquots (to a maximum of 1 mL) of selected solvents (water, methanol, DCM, and THF) to about 5 mg samples of compound 2 at 25 C with vortexing and sonication; and the approximate solubility determined by visual observation. Similar testing was carried out at 50 C, using about 10 mg samples of compound 2.

[3] = system: LMNA^H222P/H222P mouse; test: Dilated cardiomyopathy model, echocardiography; assay type: in vivo; conditions: continuous 4 weeks by osmotic pumps
Procedure: The LMNA^H222P/H222P mouse is a well-established model for studying dilated cardiomyopathy and heart failure, with cardiac dysfunction typically beginning to manifest at around 16 weeks of age. In this study, 16-week-old LMNA^H222P/H222P mice underwent baseline echocardiography prior to treatment. Compound 2 was then administered continuously for 4 weeks using osmotic pumps, with DMSO as the vehicle control. At the end of the treatment period, echocardiography was performed again to assess the impact of compound 2 on cardiac function compared to the control group. […] In a FLNC knockout model using the Myh6-Cre:FLNC^wt/F mouse, 16-week-old mice underwent baseline echocardiography, were treated with compound 2 at 50 mg/Kg/day or vehicle by gavage for 6 weeks, and underwent echocardiography to assess the change in cardiac function. […] The genistein phosphate derivatives of this invention are therefore expected to be useful for the treatment of subjects with dilated cardiomyopathy.

[4] = system: mice with DSS-induced colitis; test: DSS-induced colitis in mice; assay type: in vivo, mouse; conditions: 50 mg/Kg daily by gavage
Procedure: Mice, placed on a soy-free diet for 14 days, were administered 3.5% DSS in their drinking water for 8 days to induce colitis, and either untreated or treated with compound 2 at 50 mg/Kg daily by gavage from day 1 (prevention) or from day 5 (intervention); and monitored for clinical indicators of colitis, including stool consistency, rectal bleeding, and changes in body weight. […] The genistein phosphate derivatives of this invention are therefore expected to be useful for the treatment of subjects with inflammatory bowel disease, ulcerative colitis, and Crohn's disease.

[5] = system: mice with cerulein-induced chronic pancreatitis; test: Cerulein model of chronic pancreatitis (CP); assay type: in vivo, mouse; conditions: 100 mg/Kg daily on the last 4 weeks
Procedure: Using the cerulein model, acute edematous pancreatitis was induced in two test groups of mice by eight hourly intraperitoneal injections of 50 μg/Kg cerulein, with control group mice receiving injections of physiological saline. Compound 2, at 100 mg/Kg, was administered to one of the cerulein groups by gavage 30 minutes after the first and fourth cerulein injections. Mice were sacrificed one hour after the last injection and tissues were collected for histological analysis. […] Recurrent acute pancreatitis (RAP) and chronic pancreatitis (CP) were induced by repetitive cerulein injections every third day over a span of 14 days (RAP) or 6 weeks (CP). Compound 2 was administered daily at 50 mg/Kg on the last 10 consecutive days for RAP and at 100 mg/Kg on the last 4 weeks for CP, with vehicle controls. Mice were sacrificed 1 day after the last cerulein injection and tissues were collected for histological analysis. In the CP model, the cerulein injections induced extensive acinar cell damage.

[6] = Stability in simulated gastric fluid (SGF); assay type: in vitro ADME; conditions: SGF pH 1.2, 37° C., 2 μM
Procedure: The stability of compounds 1 to 4, and the control compound omeprazole, were measured in simulated gastric fluid (SGF: 0.2% w/v sodium chloride, 0.7% v/v hydrochloric acid, and 0.32% w/v pepsin in deionized water, pH 1.2±0.05). Stock solutions of the compounds (10 mM) were diluted to 200 μM in DMSO, then duplicate 2 μL aliquots added to 96-well plates for time points 0, 1, 2, 6, and 24 hours. SGF (198 μL) was added to all wells except those for time 0, to give a starting compound concentration of 2 μM; and the samples were incubated at 37° C. with agitation at 600 rpm for the prescribed times. After incubation, 200 μL of each sample was extracted and mixed with 400 μL cold ACN containing 200 ng/mL tolbutamide and labetalol as internal standards. The samples were centrifuged at […] for 20 minutes at 4° C., and the supernatants (60 μL) each diluted with purified water (180 μL) for LC/MS/MS analysis. The percentage of the test compound remaining at each time point was calculated based on the ratio of the peak area of the analyte to the internal standards.

[7] = Thermodynamic solubility in FaSSIF; assay type: physicochemical; conditions: thermodynamic from solid, room temperature, 24 hours shaking
Procedure: After shaking, the samples were centrifuged at 25° C. for 20 minutes at 4000 rpm. Filtrates were prepared using the Whatman Mini-UniPrep Syringeless Filter Device (PTFE filter media with polypropylene housing, pore size 0.45 μm) from Cytiva, and dilutions were performed as required. Quantification of all samples was carried out using an LC-UV system.

[8] = 0.24 and 2.4 mg/Kg/day, 7-day osmotic pumps
[9] = increases seen in control group
[10] = both prevention and intervention modes

For `O=c1c(-c2ccc(O)cc2)coc2cc(OCOP(=O)(O)O)cc(O)c12` [Compound 2, ((5-Hydroxy-3-(4-hydroxyphenyl)-4-oxo-4H-chromen-7-yl)oxy)methyl dihydrogen phosphate], the “fasting blood glucose relative to the control group” value ([1]; 2.4 mg/Kg/day group) was “significant decrease”, the “body weight lost over the 7 days” value ([1]; 0.24 and 2.4 mg/Kg/day groups (same as vehicle group)) was roughly 1% and the IL-13 blood levels [1, 8] was “reduced in a dose-dependent manner”. For the same compound, the Leptin blood levels [1, 8] was “reduced in a dose-dependent manner”, the “fasting blood glucose relative to the control group” value ([1]; both treatment groups, 0.24 and 2.4 mg/Kg/day, 7-day osmotic pumps) was “lowered” and the solubility ([2]; 25 °C, organic solvent or mixture, THF, both 25 and 50° C., read-out: solubility in THF) was 125000 to 250000 µg/mL. For the same compound, the solubility ([2]; 25 °C, organic solvent or mixture, methanol, both 25 and 50° C., read-out: solubility in methanol) was greater than 250000 µg/mL, the solubility ([2]; organic solvent or mixture, DCM, 25° C., read-out: solubility in DCM) was less than 5000 µg/mL and the solubility ([2]; water, 25° C., approximate, visual observation, read-out: solubility in water) was less than 5000 µg/mL. For the same compound, the solubility ([2]; water, 50° C., approximate, visual observation, read-out: solubility in water) was roughly 5000 µg/mL, the ejection fraction ([3]; vs DMSO control group) was “reduced the decrease” and the fractional shortening ([3]; vs DMSO control group) was “reduced the decrease”. For the same compound, the left ventricular diameter [3, 9] was “reduced”, the left ventricular volume [3, 9] was “reduced” and the weight loss ([4]; both prevention (from day 1) and intervention (from day 5) modes, 3.5% DSS) was “reduced”. For the same compound, the colon length [4, 10] was “improved”, the diarrhea [4, 10] was “reduced” and the “histology of the colon” value [4, 10] was “histological improvement”. For the same compound, the rectal bleeding [4, 10] was “reduced”, the “overall outcome over untreated mice (histology)” value [5] was “marked improvement” and the acinar cell death ([5]; vs untreated group) was “significant reduction”. For the same compound, the acinar cell density ([5]; vs untreated group) was “increase”, the “Percentage remaining at time: 1 hour” value ([6]; 1 hour) was 100% and the “Percentage remaining at time: 2 hours” value ([6]; 2 hours) was 104%. For the same compound, the “Percentage remaining at time: 6 hours” value ([6]; 6 hours) was 116%, the “Percentage remaining at time: 24 hours” value ([6]; 24 hours) was 113% and the “Percentage remaining at time: 0” value ([6]; time 0) was 100%. The solubility at 24 h ([7]; read-out: Solubility) was 7.82 mM and the solubility at 24 h ([7]; read-out: Solubility (μg/mL)) was 2970 µg/mL.
